Measured values as given in PubChem BioAssay (NCI).
“And” between values parts separate entries of the source, which are not always exact repeats. Equal entries are not always repeated.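 Tested at 5 concentrations; 48 h exposure; 96-well plates; endpoints linearly interpolated, else capped at highest concentration. Here, GI50 denotes the concentration required for 50% inhibition of growth. Definition used: TGI = concentration required for complete inhibition of growth.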

Tests used:
Assay in all cases: DTP human tumour cell line panel, 48 h
786-0 renal = test system: 786-0 renal
A549 NSCLC = test system: A549 NSCLC
ACHN renal = test system: ACHN renal
BT-549 breast = test system: BT-549 breast
CCRF-CEM leukemia = test system: CCRF-CEM leukemia
COLO 205 colon = test system: COLO 205 colon
DU-145 prostate = test system: DU-145 prostate
EKVX NSCLC = test system: EKVX NSCLC
HCT-116 colon = test system: HCT-116 colon
HCT-15 colon = test system: HCT-15 colon
HL-60(TB) leukemia = test system: HL-60(TB) leukemia
HOP-62 NSCLC = test system: HOP-62 NSCLC
HOP-92 NSCLC = test system: HOP-92 NSCLC
HS 578T breast = test system: HS 578T breast
HT29 colon = test system: HT29 colon
IGROV1 ovarian = test system: IGROV1 ovarian
K-562 leukemia = test system: K-562 leukemia
LOX IMVI melanoma = test system: LOX IMVI melanoma
M14 melanoma = test system: M14 melanoma
MALME-3M melanoma = test system: MALME-3M melanoma
MDA-MB-231 breast = test system: MDA-MB-231 breast
MDA-N = test system: MDA-N
MOLT-4 leukemia = test system: MOLT-4 leukemia
NCI-H226 lung = test system: NCI-H226 lung
NCI-H23 lung = test system: NCI-H23 lung
NCI-H460 lung = test system: NCI-H460 lung
NCI-H522 lung = test system: NCI-H522 lung
NCI/ADR-RES ovarian = test system: NCI/ADR-RES ovarian
OVCAR-3 ovarian = test system: OVCAR-3 ovarian
OVCAR-5 ovarian = test system: OVCAR-5 ovarian
OVCAR-8 ovarian = test system: OVCAR-8 ovarian
PC-3 prostate = test system: PC-3 prostate
RXF 393 renal = test system: RXF 393 renal
SF-268 CNS = test system: SF-268 CNS
SF-295 CNS = test system: SF-295 CNS
SF-539 CNS = test system: SF-539 CNS
SK-MEL-2 melanoma = test system: SK-MEL-2 melanoma
SK-MEL-28 melanoma = test system: SK-MEL-28 melanoma
SK-MEL-5 melanoma = test system: SK-MEL-5 melanoma
SK-OV-3 ovarian = test system: SK-OV-3 ovarian
SN12C renal = test system: SN12C renal
SNB-19 CNS = test system: SNB-19 CNS
SNB-75 CNS = test system: SNB-75 CNS
SW-620 colon = test system: SW-620 colon
T-47D breast = test system: T-47D breast
TK-10 renal = test system: TK-10 renal
U251 CNS = test system: U251 CNS
UACC-257 melanoma = test system: UACC-257 melanoma
UACC-62 melanoma = test system: UACC-62 melanoma
UO-31 renal = test system: UO-31 renal
A498 renal = test system: A498 renal
CAKI-1 renal = test system: CAKI-1 renal
HCC-2998 colon = test system: HCC-2998 colon
KM12 colon = test system: KM12 colon
MCF7 breast = test system: MCF7 breast
MDA-MB-435 = test system: MDA-MB-435
OVCAR-4 ovarian = test system: OVCAR-4 ovarian
RPMI-8226 leukemia = test system: RPMI-8226 leukemia
SR leukemia = test system: SR leukemia

Work on `CCOP(=O)(O)CC1OC(CO)C(O)C1O` (stereo not drawn) yielded a TGI (786-0 renal) greater than 100 µM, a TGI (A549 NSCLC) greater than 100 µM and a TGI (ACHN renal) greater than 100 µM. The TGI (BT-549 breast) was greater than 100 µM, the TGI (CCRF-CEM leukemia) was greater than 100 µM and the TGI (COLO 205 colon) was greater than 100 µM. The TGI (DU-145 prostate) was greater than 100 µM, the TGI (EKVX NSCLC) was greater than 100 µM and the TGI (HCT-116 colon) was greater than 100 µM. The TGI (HCT-15 colon) was greater than 100 µM, the GI50 (HL-60(TB) leukemia) was 30.1 µM and > 100 µM and the TGI (HL-60(TB) leukemia) was greater than 100 µM. It also gave a TGI (HOP-62 NSCLC) greater than 100 µM, a TGI (HOP-92 NSCLC) greater than 100 µM and a TGI (HS 578T breast) greater than 100 µM. For the same compound, the TGI (HT29 colon) was greater than 100 µM, the TGI (IGROV1 ovarian) was greater than 100 µM and the TGI (K-562 leukemia) was greater than 100 µM. It also gave a TGI (LOX IMVI melanoma) greater than 100 µM, a TGI (M14 melanoma) greater than 100 µM and a TGI (MALME-3M melanoma) greater than 100 µM. For the same compound, the TGI (MDA-MB-231 breast) was greater than 100 µM, the TGI (MDA-N) was greater than 100 µM and the TGI (MOLT-4 leukemia) was greater than 100 µM. It also gave a TGI (NCI-H226 lung) greater than 100 µM, a TGI (NCI-H23 lung) greater than 100 µM and a TGI (NCI-H460 lung) greater than 100 µM. For the same compound, the TGI (NCI-H522 lung) was greater than 100 µM, the TGI (NCI/ADR-RES ovarian) was greater than 100 µM and the TGI (OVCAR-3 ovarian) was greater than 100 µM. It also gave a TGI (OVCAR-5 ovarian) greater than 100 µM, a TGI (OVCAR-8 ovarian) greater than 100 µM and a TGI (PC-3 prostate) greater than 100 µM. It also gave a TGI (RXF 393 renal) greater than 100 µM, a TGI (SF-268 CNS) greater than 100 µM and a TGI (SF-295 CNS) greater than 100 µM. It also gave a TGI (SF-539 CNS) greater than 100 µM, a TGI (SK-MEL-2 melanoma) greater than 100 µM and a TGI (SK-MEL-28 melanoma) greater than 100 µM. It also gave a TGI (SK-MEL-5 melanoma) greater than 100 µM, a TGI (SK-OV-3 ovarian) greater than 100 µM and a TGI (SN12C renal) greater than 100 µM. It also gave a TGI (SNB-19 CNS) greater than 100 µM, a TGI (SNB-75 CNS) greater than 100 µM and a TGI (SW-620 colon) greater than 100 µM. For the same compound, the TGI (T-47D breast) was greater than 100 µM, the TGI (TK-10 renal) was greater than 100 µM and the TGI (U251 CNS) was greater than 100 µM. The TGI (UACC-257 melanoma) was greater than 100 µM, the TGI (UACC-62 melanoma) was greater than 100 µM and the TGI (UO-31 renal) was greater than 100 µM.

For `Fc1cccc(C2SCC3=Nc4ccccc4CN32)c1` (stereo not drawn), the TGI (786-0 renal) was greater than 100 µM, the TGI (A498 renal) was greater than 100 µM and the TGI (A549 NSCLC) was greater than 100 µM. It also gave a TGI (ACHN renal) greater than 100 µM, a TGI (BT-549 breast) greater than 100 µM and a TGI (CAKI-1 renal) greater than 100 µM. The TGI (CCRF-CEM leukemia) was greater than 100 µM, the TGI (COLO 205 colon) was greater than 100 µM and the TGI (DU-145 prostate) was greater than 100 µM. The TGI (EKVX NSCLC) was greater than 100 µM, the TGI (HCC-2998 colon) was greater than 100 µM and the TGI (HCT-116 colon) was 88.6 µM. For the same compound, the TGI (HCT-15 colon) was greater than 100 µM, the TGI (HL-60(TB) leukemia) was greater than 100 µM and the TGI (HOP-62 NSCLC) was greater than 100 µM. It also gave a TGI (HOP-92 NSCLC) greater than 100 µM, a TGI (HT29 colon) of 74.3 µM and a TGI (K-562 leukemia) greater than 100 µM. It also gave a TGI (KM12 colon) greater than 100 µM, a TGI (LOX IMVI melanoma) greater than 100 µM and a TGI (M14 melanoma) greater than 100 µM. The TGI (MCF7 breast) was greater than 100 µM, the TGI (MDA-MB-231 breast) was greater than 100 µM and the TGI (MDA-MB-435) was greater than 100 µM. It also gave a TGI (MDA-N) greater than 100 µM, a TGI (MOLT-4 leukemia) greater than 100 µM and a TGI (NCI-H23 lung) greater than 100 µM. It also gave a TGI (NCI-H460 lung) greater than 100 µM, a TGI (NCI/ADR-RES ovarian) of 35.9 µM and a TGI (OVCAR-3 ovarian) of 70.5 µM. For the same compound, the TGI (OVCAR-4 ovarian) was greater than 100 µM, the TGI (OVCAR-5 ovarian) was greater than 100 µM and the TGI (OVCAR-8 ovarian) was greater than 100 µM. For the same compound, the TGI (PC-3 prostate) was greater than 100 µM, the TGI (RPMI-8226 leukemia) was greater than 100 µM and the TGI (RXF 393 renal) was greater than 100 µM. The TGI (SF-268 CNS) was greater than 100 µM, the TGI (SF-295 CNS) was greater than 100 µM and the TGI (SF-539 CNS) was greater than 100 µM. It also gave a TGI (SK-MEL-2 melanoma) of 49.7 µM, a TGI (SK-MEL-28 melanoma) greater than 100 µM and a TGI (SK-MEL-5 melanoma) of 41.1 µM. The TGI (SK-OV-3 ovarian) was greater than 100 µM, the TGI (SN12C renal) was greater than 100 µM and the TGI (SNB-19 CNS) was greater than 100 µM. The TGI (SNB-75 CNS) was greater than 100 µM, the TGI (SR leukemia) was greater than 100 µM and the TGI (SW-620 colon) was greater than 100 µM. The TGI (T-47D breast) was greater than 100 µM, the TGI (TK-10 renal) was greater than 100 µM and the TGI (U251 CNS) was greater than 100 µM. For the same compound, the TGI (UACC-257 melanoma) was greater than 100 µM, the TGI (UACC-62 melanoma) was greater than 100 µM and the TGI (UO-31 renal) was greater than 100 µM.

Work on `Cc1ccc(C(=O)Nc2ccc(S(=O)(=O)O)c3cc(S(=O)(=O)O)cc(S(=O)(=O)O)c23)cc1N` yielded a TGI (786-0 renal) greater than 100 µM, a TGI (A498 renal) greater than 100 µM and a TGI (ACHN renal) greater than 100 µM. For the same compound, the TGI (BT-549 breast) was greater than 100 µM, the TGI (CAKI-1 renal) was greater than 100 µM and the TGI (CCRF-CEM leukemia) was greater than 100 µM. For the same compound, the TGI (COLO 205 colon) was greater than 100 µM, the TGI (DU-145 prostate) was greater than 100 µM and the TGI (EKVX NSCLC) was greater than 100 µM. The TGI (HCC-2998 colon) was greater than 100 µM, the TGI (HCT-116 colon) was greater than 100 µM and the TGI (HCT-15 colon) was greater than 100 µM. The TGI (HL-60(TB) leukemia) was greater than 100 µM, the TGI (HOP-62 NSCLC) was greater than 100 µM and the TGI (HS 578T breast) was greater than 100 µM. The TGI (HT29 colon) was greater than 100 µM, the TGI (IGROV1 ovarian) was greater than 100 µM and the TGI (K-562 leukemia) was greater than 100 µM. For the same compound, the TGI (KM12 colon) was greater than 100 µM, the TGI (M14 melanoma) was greater than 100 µM and the TGI (MALME-3M melanoma) was greater than 100 µM. For the same compound, the TGI (MCF7 breast) was greater than 100 µM, the TGI (MDA-MB-231 breast) was greater than 100 µM and the TGI (MDA-N) was greater than 100 µM. The TGI (MOLT-4 leukemia) was greater than 100 µM, the TGI (NCI-H226 lung) was greater than 100 µM and the TGI (NCI-H23 lung) was greater than 100 µM. The TGI (NCI-H460 lung) was greater than 100 µM, the TGI (NCI-H522 lung) was greater than 100 µM and the TGI (NCI/ADR-RES ovarian) was greater than 100 µM. It also gave a TGI (OVCAR-3 ovarian) greater than 100 µM, a TGI (OVCAR-4 ovarian) greater than 100 µM and a TGI (OVCAR-5 ovarian) greater than 100 µM. It also gave a TGI (OVCAR-8 ovarian) greater than 100 µM, a TGI (PC-3 prostate) greater than 100 µM and a TGI (RXF 393 renal) greater than 100 µM. It also gave a TGI (SF-268 CNS) greater than 100 µM, a TGI (SF-295 CNS) greater than 100 µM and a TGI (SF-539 CNS) greater than 100 µM. The TGI (SK-MEL-2 melanoma) was greater than 100 µM, the TGI (SK-MEL-28 melanoma) was greater than 100 µM and the TGI (SK-MEL-5 melanoma) was greater than 100 µM. It also gave a TGI (SK-OV-3 ovarian) greater than 100 µM, a TGI (SN12C renal) greater than 100 µM and a TGI (SNB-19 CNS) greater than 100 µM. For the same compound, the TGI (SNB-75 CNS) was greater than 100 µM, the TGI (SR leukemia) was greater than 100 µM and the TGI (SW-620 colon) was greater than 100 µM. It also gave a TGI (T-47D breast) greater than 100 µM, a TGI (TK-10 renal) greater than 100 µM and a TGI (UACC-257 melanoma) greater than 100 µM. The TGI (UACC-62 melanoma) was greater than 100 µM and the TGI (UO-31 renal) was greater than 100 µM.
